Laboratory results: ChEMBL document CHEMBL5537174, “Discovery of Potent SOS1 PROTACs with Effective Antitumor Activities against NCI-H358 Tumor Cells In Vitro/In Vivo” (J Med Chem, 2024)

How the values were obtained:
NCI-H358 [1] = experiment: Antiproliferative activity against human NCI-H358 cells assessed as inhibition of cell proliferation incubated for 7 days by celltiter-glo 3D assay; type: functional, cell-based; conditions: NCI-H358, 168 h
[2] = biological target: Protein cereblon/Son of sevenless homolog 1 (Homo sapiens, UniProt Q07889+Q96SW2); experiment: PROTAC activity at CRBN/SOS1 in human NCI-H358 cells assessed as induction of SOS1 degradation incubated for 6 hrs by Western blotting analysis; type: cell-based
NCI-H358 [3] = experiment: Antiproliferative activity against human NCI-H358 cells assessed as reduction in cell viability
[4] = Toxicity in BALB/c nude mouse xenografted with human NCI-H358 cells assessed as body weight loss at 30 mg/kg, ip measured every 3 days for 21 days; type: organism-based; conditions: in vivo, 504 h, time 21 day
NCI-H358 [5] = experiment: Antiproliferative activity against human NCI-H358 cells harboring G12C mutant assessed as inhibition of cell proliferation incubated for 7 days by celltiter-glo 3D assay; type: functional, cell-based; conditions: NCI-H358, 168 h
[6] = Antiproliferative activity against human GP2d cells harboring G12D mutant assessed as inhibition of cell proliferation incubated for 7 days by celltiter-glo 3D assay; type: functional, cell-based; conditions: 168 h
NCI-H358 [7] = experiment: Antitumor activity against human NCI-H358 cells xenografted in BALB/c nude mouse assessed as tumor growth inhibition at 30 mg/kg, ip measured twice daily for 21 days; type: functional; conditions: NCI-H358, 504 h, time 21 day, read-out: TGI
NCI-H441 = experiment: Antiproliferative activity against human NCI-H441 cells harboring G12V mutant assessed as inhibition of cell proliferation incubated for 7 days by celltiter-glo 3D assay; type: functional, cell-based; conditions: NCI-H441, 168 h
DLD-1 = experiment: Antiproliferative activity against human DLD-1 cells harboring G13D mutant assessed as inhibition of cell proliferation incubated for 7 days by celltiter-glo 3D assay; type: functional, cell-based; conditions: DLD-1, 168 h
SOS1-KRAS = SOS1-KRAS (Homo sapiens, UniProt Q07889); experiment: Inhibition of SOS1/KRAS G12C mutant (unknown origin); type: protein-complex assay
SOS1-KRAS, sequence (Q07889 whole entry, looked up, stated change not applied): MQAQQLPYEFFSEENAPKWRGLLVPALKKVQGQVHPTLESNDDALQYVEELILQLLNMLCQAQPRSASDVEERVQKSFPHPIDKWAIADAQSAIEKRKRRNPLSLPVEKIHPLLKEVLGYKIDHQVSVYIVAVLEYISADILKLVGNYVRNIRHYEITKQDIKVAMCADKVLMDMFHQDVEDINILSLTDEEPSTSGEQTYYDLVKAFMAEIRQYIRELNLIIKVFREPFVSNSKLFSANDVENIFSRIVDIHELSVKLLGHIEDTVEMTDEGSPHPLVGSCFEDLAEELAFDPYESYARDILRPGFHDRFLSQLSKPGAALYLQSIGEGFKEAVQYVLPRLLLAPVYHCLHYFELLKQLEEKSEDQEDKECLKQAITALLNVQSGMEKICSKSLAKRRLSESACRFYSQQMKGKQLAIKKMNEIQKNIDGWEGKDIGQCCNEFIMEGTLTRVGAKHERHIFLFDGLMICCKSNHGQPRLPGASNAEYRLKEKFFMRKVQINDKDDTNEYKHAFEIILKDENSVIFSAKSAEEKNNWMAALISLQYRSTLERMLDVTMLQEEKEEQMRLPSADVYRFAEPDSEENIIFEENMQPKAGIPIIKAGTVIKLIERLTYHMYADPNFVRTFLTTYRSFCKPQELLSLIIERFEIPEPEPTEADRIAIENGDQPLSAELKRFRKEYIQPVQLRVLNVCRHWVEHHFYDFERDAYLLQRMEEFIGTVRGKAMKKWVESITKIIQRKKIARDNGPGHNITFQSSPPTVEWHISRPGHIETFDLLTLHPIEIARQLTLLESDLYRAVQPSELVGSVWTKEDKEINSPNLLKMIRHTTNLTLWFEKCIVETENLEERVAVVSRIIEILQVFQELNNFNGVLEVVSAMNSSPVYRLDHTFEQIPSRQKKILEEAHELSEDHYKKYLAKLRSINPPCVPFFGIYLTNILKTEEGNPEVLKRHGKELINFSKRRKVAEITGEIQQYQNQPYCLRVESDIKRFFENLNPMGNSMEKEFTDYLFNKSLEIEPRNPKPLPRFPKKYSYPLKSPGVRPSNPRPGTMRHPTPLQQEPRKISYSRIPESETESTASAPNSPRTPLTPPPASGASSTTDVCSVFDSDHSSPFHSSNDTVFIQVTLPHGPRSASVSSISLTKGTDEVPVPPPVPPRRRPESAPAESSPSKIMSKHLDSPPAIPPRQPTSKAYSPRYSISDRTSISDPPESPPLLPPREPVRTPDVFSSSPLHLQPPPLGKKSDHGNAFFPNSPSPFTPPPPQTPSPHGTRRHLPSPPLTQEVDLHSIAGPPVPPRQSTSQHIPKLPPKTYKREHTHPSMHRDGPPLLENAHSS

Protein cereblon/Son of sevenless homolog 1, sequence (Q07889 whole entry): as the sequence (Q07889 whole entry, looked up, stated change not applied) above
Protein cereblon/Son of sevenless homolog 1, sequence (Q96SW2 whole entry): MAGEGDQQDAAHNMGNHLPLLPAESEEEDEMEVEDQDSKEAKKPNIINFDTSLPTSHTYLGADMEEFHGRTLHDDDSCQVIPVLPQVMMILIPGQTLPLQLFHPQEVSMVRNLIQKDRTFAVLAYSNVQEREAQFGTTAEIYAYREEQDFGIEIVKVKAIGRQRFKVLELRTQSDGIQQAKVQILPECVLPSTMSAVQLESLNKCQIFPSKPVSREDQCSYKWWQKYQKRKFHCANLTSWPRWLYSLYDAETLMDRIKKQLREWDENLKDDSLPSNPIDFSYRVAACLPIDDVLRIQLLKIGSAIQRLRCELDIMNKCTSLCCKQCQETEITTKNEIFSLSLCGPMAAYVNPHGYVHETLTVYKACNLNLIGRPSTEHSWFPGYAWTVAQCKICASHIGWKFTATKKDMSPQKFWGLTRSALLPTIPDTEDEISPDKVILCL

Structure (SMILES) | IC50 (NCI-H358 [1]) | also measured
COc1cc2nc(C)nc(N[C@H](C)c3cccc(C#N)c3C)c2cc1OCC1(CN(C)C(=O)CCCCCCNc2cccc3c2C(=O)N(C2CCC(=O)NC2=O)C3=O)CC1 (stereo partly specified) | 2050 nM | 
COc1cc2nc(C)nc(N[C@H](C)c3cc(N)cc(C(F)(F)F)c3)c2cc1OCC1(CN(C)C(=O)CCCCCC#Cc2cccc3c2C(=O)N(C2CCC(=O)NC2=O)C3=O)CC1 (stereo partly specified) | 591 nM | 
COc1cc2nc(C)nc(N[C@H](C)c3cc(N)cc(C(F)(F)F)c3)c2cc1OCC1(CN(C)C(=O)CN2CCN(C3CCN(c4ccc5c(c4)C(=O)N(C4CCC(=O)NC4=O)C5=O)CC3)CC2)CC1 (stereo partly specified) | 928 nM | 
COc1cc2nc(C)nc(N[C@H](C)c3cc(N)cc(C(F)(F)F)c3)c2cc1OCC1(CN(C)C(=O)C2CCN(C3CCN(c4ccc5c(c4)C(=O)N(C4CCC(=O)NC4=O)C5=O)CC3)CC2)CC1 (stereo partly specified) | 684 nM | 
COc1cc2nc(C)nc(N[C@H](C)c3cc(N)cc(C(F)(F)F)c3)c2cc1OCC1(CN(C)C(=O)C2CCC(OC3CCN(c4ccc5c(c4)C(=O)N(C4CCC(=O)NC4=O)C5=O)CC3)CC2)CC1 (stereo partly specified) | 733 nM | 
COc1cc2nc(C)nc(N[C@H](C)c3cc(N)cc(C(F)(F)F)c3)c2cc1OCC1(CN(C)C(=O)CCCN(C)C2CCC(Nc3cccc4c3C(=O)N(C3CCC(=O)NC3=O)C4=O)CC2)CC1 (stereo partly specified) | 814 nM | 
COc1cc2nc(C)nc(N[C@H](C)c3cc(N)cc(C(F)(F)F)c3)c2cc1OCC1(CN(C)C(=O)CCNc2cccc3c2C(=O)N(C2CCC(=O)NC2=O)C3=O)CC1 (stereo partly specified) | 2890 nM | 
COc1cc2nc(C)nc(N[C@H](C)c3cc(N)cc(C(F)(F)F)c3)c2cc1OCC1(CN(C)C(=O)CCCCCCNc2cccc3c2C(=O)N(C2CCC(=O)N(C)C2=O)C3=O)CC1 (stereo partly specified) | 1380 nM | DC50 [2]: Not Active
COc1cc2nc(C)nc(N[C@H](C)c3cc(N)cc(C(F)(F)F)c3)c2cc1OCC1(CN(C)C(=O)CN2CCN(C3CN(c4ccc5c(c4)C(=O)N(C4CCC(=O)NC4=O)C5=O)C3)CC2)CC1 (stereo partly specified) | 1200 nM | 
COc1cc2nc(C)nc(N[C@H](C)c3cc(N)cc(C(F)(F)F)c3)c2cc1OCC1(CN(C)C(=O)CCCCCCNc2ccc3c(c2)C(=O)N(C2CCC(=O)NC2=O)C3=O)CC1 (stereo partly specified) | 799 nM | 
O=C(O)CCCCCCNc1cccc2c1C(=O)N(C1CCC(=O)NC1=O)C2=O (stereo unspecified) |  | DC50 [2]: Not Active
COc1cc2nc(C)nc(N[C@H](C)c3cc(N)cc(C(F)(F)F)c3)c2cc1OCC1(CN(C)C(=O)CCOCCC#Cc2cccc3c2C(=O)N(C2CCC(=O)NC2=O)C3=O)CC1 (stereo partly specified) | 1140 nM | 
COc1cc2nc(C)nc(N[C@H](C)c3cc(N)cc(C(F)(F)F)c3)c2cc1OCC1(CN(C)C(=O)CN2CCC(CN3CCN(c4ccc5c(c4)C(=O)N(C4CCC(=O)NC4=O)C5=O)CC3)CC2)CC1 (stereo partly specified) | 1080 nM | 
COc1cc2nc(C)nc(N[C@H](C)c3cc(N)cc(C(F)(F)F)c3)c2cc1OCC1(CN(C)C(=O)CCCCCCNc2ccc3c(c2F)C(=O)N(C2CCC(=O)NC2=O)C3=O)CC1 (stereo partly specified) | 4180 nM | 
COc1cc2nc(C)nc(N[C@H](C)c3cc(N)cc(C(F)(F)F)c3)c2cc1OCC1(CN(C)C(=O)CN2CCC(OC3CCN(c4ccc5c(c4)C(=O)N(C4CCC(=O)NC4=O)C5=O)CC3)CC2)CC1 (stereo partly specified) | 814 nM | 
COc1cc2nc(C)nc(N[C@H](C)c3cc(N)cc(C(F)(F)F)c3)c2cc1OCC1(CN(C)C(=O)CCC(=O)N(C)C2CCC(Nc3cccc4c3C(=O)N(C3CCC(=O)NC3=O)C4=O)CC2)CC1 (stereo partly specified) | 927 nM | 
COc1cc2nc(C)nc(N[C@H](C)c3cc(N)cc(C(F)(F)F)c3)c2cc1OCC1(CN(C)C(=O)C2CCC(N3CCN(c4ccc5c(c4)C(=O)N(C4CCC(=O)NC4=O)C5=O)CC3)CC2)CC1 (stereo partly specified) | 1370 nM | 
COc1cc2nc(C)nc(N[C@H](C)c3cc(N)cc(C(F)(F)F)c3)c2cc1OCC1(CN(C)C(=O)COCCNc2cccc3c2C(=O)N(C2CCC(=O)NC2=O)C3=O)CC1 (stereo partly specified) | 1380 nM | 
COc1cc2nc(C)nc(N[C@H](C)c3cc(N)cc(C(F)(F)F)c3)c2cc1OCC1(CN(C)C(=O)CCOCCNc2cccc3c2C(=O)N(C2CCC(=O)NC2=O)C3=O)CC1 (stereo partly specified) | 1660 nM | 

Further lines, with some results ahead:

IC50 (NCI-H358 [1]) | Structure (SMILES) | also measured
86 nM | COc1cc2nc(C)nc(N[C@H](C)c3cc(N)cc(C(F)(F)F)c3)c2cc1OCC1(CN(C)C(=O)CCCCNc2cccc3c2C(=O)N(C2CCC(=O)NC2=O)C3=O)CC1 (stereo partly specified) | 
421 nM | COc1cc2nc(C)nc(N[C@H](C)c3cc(N)cc(C(F)(F)F)c3)c2cc1OCC1(CN(C)C(=O)CCOCCOCCNc2cccc3c2C(=O)N(C2CCC(=O)NC2=O)C3=O)CC1 (stereo partly specified) | 
216 nM | COc1cc2nc(C)nc(N[C@H](C)c3cccc(C(F)F)c3F)c2cc1OCC1(CN(C)C(=O)CCCCCCNc2cccc3c2C(=O)N(C2CCC(=O)NC2=O)C3=O)CC1 (stereo partly specified) | DC50 ([2]; read-out: DC50): 540 nM
334 nM | COc1cc2nc(C)nc(N[C@H](C)c3cc(N)cc(C(F)(F)F)c3)c2cc1OCC1(CN(C)C(=O)CCCCCNc2cccc3c2C(=O)N(C2CCC(=O)NC2=O)C3=O)CC1 (stereo partly specified) | 
75 nM | COc1cc2nc(C)nc(N[C@H](C)c3cc(N)cc(C(F)(F)F)c3)c2cc1OCC1(CN(C)C(=O)CCCCCCOc2cccc3c2C(=O)N(C2CCC(=O)NC2=O)C3=O)CC1 (stereo partly specified) | 
513 nM | COc1cc2nc(C)nc(N[C@H](C)c3cc(N)cc(C(F)(F)F)c3)c2cc1OCC1(CN(C)C(=O)C2CCC(NC3CCN(c4ccc5c(c4)C(=O)N(C4CCC(=O)NC4=O)C5=O)CC3)CC2)CC1 (stereo partly specified) | 
63 nM | COc1cc2nc(C)nc(N[C@H](C)c3cc(N)cc(C(F)(F)F)c3)c2cc1OCC1(CN(C)C(=O)CCCCCCNc2c(F)ccc3c2C(=O)N(C2CCC(=O)NC2=O)C3=O)CC1 (stereo partly specified) | 
51 nM | COc1cc2nc(C)nc(N[C@H](C)c3cc(N)cc(C(F)(F)F)c3)c2cc1OCC1(CN(C)C(=O)C2CCN(C3CCC(Nc4cccc5c4C(=O)N(C4CCC(=O)NC4=O)C5=O)CC3)CC2)CC1 (stereo partly specified) | DC50 ([2]; read-out: DC50): 55 nM
15 nM | COc1cc2nc(C)nc(N[C@H](C)c3cc(N)cc(C(F)(F)F)c3)c2cc1OCC1(CN(C)C(=O)CCCOC2CCC(Nc3cccc4c3C(=O)N(C3CCC(=O)NC3=O)C4=O)CC2)CC1 (stereo partly specified) | DC50 ([2]; read-out: DC50): 35 nM
358 nM | COc1cc2nc(C)nc(N[C@H](C)c3cccc(C(F)(F)C(C)(C)O)c3F)c2cc1OCC1(CN(C)C(=O)CCCCCCNc2cccc3c2C(=O)N(C2CCC(=O)NC2=O)C3=O)CC1 (stereo partly specified) | 
47 nM | COc1cc2nc(C)nc(N[C@H](C)c3cc(N)cc(C(F)(F)F)c3)c2cc1OCC1(CN(C)C(=O)CCCCCCNc2cccc3c2CN(C2CCC(=O)NC2=O)C3=O)CC1 (stereo partly specified) | DC50 ([2]; read-out: DC50): 151 nM
18 nM | COc1cc2nc(C)nc(N[C@H](C)c3cc(N)cc(C(F)(F)F)c3)c2cc1OCC1(CN(C)C(=O)C2CCN(CCNc3cccc4c3C(=O)N(C3CCC(=O)NC3=O)C4=O)CC2)CC1 (stereo partly specified) | DC50 ([2]; read-out: DC50): 44 nM
23 nM | COc1cc2nc(C)nc(N[C@H](C)c3cc(N)cc(C(F)(F)F)c3)c2cc1OCC1(CN(C)C(=O)CCCCCCNc2ccc(F)c3c2C(=O)N(C2CCC(=O)NC2=O)C3=O)CC1 (stereo partly specified) | DC50 ([2]; read-out: DC50): 63 nM
318 nM | COc1cc2nc(C)nc(N[C@H](C)c3cc(N)cc(C(F)(F)F)c3)c2cc1OCC1(CN(C)C(=O)CCCCCCNc2nccc3c2C(=O)N(C2CCC(=O)NC2=O)C3=O)CC1 (stereo partly specified) | 
26 nM | COc1cc2nc(C)nc(N[C@H](C)c3cc(N)cc(C(F)(F)F)c3)c2cc1O[C@H]1CCOC1 | IC50 (NCI-H358 [3]): 24 nM; Activity [4]: Non-Toxic; IC50 (NCI-H358 [5]): 26 nM; IC50 [6]: 17 nM; inhibition in vivo at 30 mg/kg (NCI-H358 [7]): 39.4%; IC50 (NCI-H441): 68 nM; IC50 (DLD-1): 102 nM
102 nM | CNCC1(COc2cc3c(N[C@H](C)c4cc(N)cc(C(F)(F)F)c4)nc(C)nc3cc2OC)CC1 | IC50 (SOS1-KRAS): 10 nM
84 nM | COc1cc2nc(C)nc(N[C@H](C)c3cc(N)cc(C(F)(F)F)c3)c2cc1OCC1(CN(C)C(=O)C2CCN(C(=O)C3CCN(c4ccc5c(c4)C(=O)N(C4CCC(=O)NC4=O)C5=O)CC3)CC2)CC1 (stereo partly specified) | 
114 nM | COc1cc2nc(C)nc(N[C@H](C)c3cc(N)cc(C(F)(F)F)c3)c2cc1OCC1(CN(C)C(=O)COCCCCNc2cccc3c2C(=O)N(C2CCC(=O)NC2=O)C3=O)CC1 (stereo partly specified) | 
70 nM | COc1cc2nc(C)nc(N[C@H](C)c3cc(N)cc(C(F)(F)F)c3)c2cc1OCC1(CN(C)C(=O)CCCOCCNc2cccc3c2C(=O)N(C2CCC(=O)NC2=O)C3=O)CC1 (stereo partly specified) | 
16 nM | COc1cc2nc(C)nc(N[C@H](C)c3cc(N)cc(C(F)F)c3)c2cc1OCC1(CN(C)C(=O)CCCCCCNc2cccc3c2C(=O)N(C2CCC(=O)NC2=O)C3=O)CC1 (stereo partly specified) | DC50 ([2]; read-out: DC50): 45 nM
220 nM | COc1cc2nc(C)nc(N[C@H](C)c3cc(N)cc(C(F)(F)C(C)(C)O)c3)c2cc1OCC1(CN(C)C(=O)CCCCCCNc2cccc3c2C(=O)N(C2CCC(=O)NC2=O)C3=O)CC1 (stereo partly specified) | 
